Assay results: patent US20160238590A1, “COMPOSITIONS AND METHODS RELATED TO OAT SENSITIVITY” (IMMUSANT, INC., priority 2013, published 2016)

Key:
Type in all cases: cell-based, human
Patient 14 TCC-01 = experiment: IFN-γ ELISpot with T cell clone; settings: TCC Patient 14 TCC-01 (Table 5); mean no antigen 11.3, high background, SFU >25 considered as positive responses
Protocol: (§1) Peripheral blood mononuclear cells (PBMC) were isolated from heparinized whole blood using Ficoll-Paque™ Plus density-gradient centrifugation (GE Healthcare). IFN-γ ELISpot (Mabtech) was set up as previously described^8.
(§2) Isolation of TCC from CD patients was carried out as previously described^8. Briefly, CFSE-labeled PBMC were incubated with antigen for 7 days in IMDM supplemented with 5% heat-inactivated pooled human serum (PHS), 2 mM GlutaMAX™, 100 μM MEM non-essential amino acids (both from Gibco, Invitrogen), and 50 μM 2-mercaptoethanol (Sigma). Proliferated cells were single-cell sorted into 96-well plates containing IL-2, IL-4, anti-CD3 mAb, irradiated feeder cells (allogeneic PBMC and JY-EBV). TCC were expanded and maintained in IL-2 and IL-4 and tested for specificity by ELISpot with irradiated HLA-matched PBMC as antigen-presenting cells. Expanded clones were tested for HLA-DQ restriction, TCR Vbeta usage, and with lysine scans to work out minimal epitopes. See Table 1 below for TCC and epitope information.

Patient 2 TCC-01 = experiment: IFN-γ ELISpot with T cell clone; settings: TCC Patient 2 TCC-01 (Table 5); mean no antigen 1.1
Protocol: as §1, §2

Patient 6 TCC-01 = experiment: IFN-γ ELISpot with T cell clone; settings: TCC Patient 6 TCC-01 (Table 5); mean no antigen 2
Protocol: as §1, §2

PBMC [1] = experiment: IFN-γ ELISpot on PBMC of CD patients after 3-day barley challenge; settings: after barley challenge
From the text: (§3) Australian Caucasian HLA-DQ2.5^+ and/or HLA-DQ8^+ CD subjects were recruited by advertisement in the Coeliac Society of Victoria newsletter and all had biopsy-proven CD conforming to ESPGHAN criteria. Patients had been on strict gluten free diet for at least 4 weeks prior to commencing grain challenge. Patients underwent 3-day grain challenge with oats, barley, or combined wheat, barley, and rye muffins, and 6 days after commencement, blood was collected. Day 0 responses were not observed in the selection of patients tested, as described previously^8.
(§4) Oats challenge consisted of 100 g dry weight daily of one of three commercial brands of oats: one not tested for wheat contamination (Uncle Toby's; Oats #1), and two shown by R5 ELISA to contain less than 20 ppm wheat gluten (Tilquhilie Pudding; Oats #2 and Freedom Food; Oats #3). Barley challenge consisted of pearl barley (Ward McKenzie) cooked into a risotto (150 g dry weight daily) and the wheat challenge consisted of four 50 g slices of wheat bread daily (Baker's Delight white loaf cut to toasting thickness). The combined wheat, barley, and rye challenge consisted of muffins baked with wheat flour (White Wings), barley flour (Four Leaf Milling), and rye flour (Four Leaf Milling; 22-25 g dry weight each daily). A symptom diary based on a […] Likert scale was completed by participants daily from baseline until day 6.
(§5) Two avenin peptide libraries were utilized for epitope screening. These were designed using avenin sequences from GenBank and a customized algorithm, as previously described^9. The initial library consisted of 199 screening-grade 20 mers including all possible 12 mers (Mimotopes). This library was screened with and without tTG pre-treatment. The second library consisted of additional avenin sequences that were synthesized with glutamate substitution at sites predicted to be deamidated by published algorithms^10, 11 removing the requirement for tTG treatment. This library contained 369 screening-grade 20 mers, including all possible 12 mers (Pepscan). The second round avenin library contained wild-type and deamidated versions of the most immunogenic sequences (25 high quality 16 mers from Mimotopes). High quality peptides containing previously described immunogenic sequences from wheat, barley, and rye were used to test for cross-reactivity^8 (Pepscan). High quality hordein and avenin peptides for TCC testing and biochemical studies were ordered from Pepscan, Mimotopes, or GL Biochem.
as §1

PBMC [2] = experiment: IFN-γ ELISpot on PBMC of CD patients on day 6 after 3-day oats challenge; settings: for IFN-γ ELISpot response (raw SFU) / significant SFU as a percentage of maximal peptide SFU: after 3-day oats challenge
From the text: as §3, §4, §5, §1

## PEQPFPEQPQPYPQQP [barley peptide, AFM77740.1 (25-40) [Q26 to E, Q31 to E]]
Patient 14 TCC-01
  IFN-γ ELISpot response (raw SFU): 66 SFU
Patient 2 TCC-01
  IFN-γ ELISpot response (raw SFU): 202 SFU
Patient 6 TCC-01
  IFN-γ ELISpot response (raw SFU): 73 SFU

## SEQYQPYPEQEQPFLQEQPL [avenin library peptide]
PBMC [1]; Patient 1, peptide 50 μg/ml
  IFN-γ ELISpot response (raw SFU): 122 SFU
  significant SFU as a percentage of maximal peptide SFU: * (*: 20-40%)
PBMC [1]; Patient 2, peptide 50 μg/ml
  IFN-γ ELISpot response (raw SFU): 208 SFU
  significant SFU as a percentage of maximal peptide SFU: *** (***: >70%)
PBMC [1]; Patient 3, peptide 50 μg/ml
  IFN-γ ELISpot response (raw SFU): 34 SFU
  significant SFU as a percentage of maximal peptide SFU: * (*: 20-40%)

## PSEQYQPYPEQEQPILQQEE [avenin library peptide]
PBMC [1]; Patient 1, peptide 50 μg/ml
  IFN-γ ELISpot response (raw SFU): 27 SFU
  significant SFU as a percentage of maximal peptide SFU: (^: 5-10%)
PBMC [1]; Patient 2, peptide 50 μg/ml
  IFN-γ ELISpot response (raw SFU): 159 SFU
  significant SFU as a percentage of maximal peptide SFU: *** (***: >70%)
PBMC [1]; Patient 3, peptide 50 μg/ml
  IFN-γ ELISpot response (raw SFU): 7 SFU

## EQYQPYPEQQQPFLQQQPLE [avenin library peptide]
PBMC [1]; Patient 1, peptide 50 μg/ml
  IFN-γ ELISpot response (raw SFU): 25 SFU
  significant SFU as a percentage of maximal peptide SFU: (^: 5-10%)
PBMC [1]; Patient 2, peptide 50 μg/ml
  IFN-γ ELISpot response (raw SFU): 196 SFU
  significant SFU as a percentage of maximal peptide SFU: *** (***: >70%)
PBMC [1]; Patient 3, peptide 50 μg/ml
  IFN-γ ELISpot response (raw SFU): 24 SFU
  significant SFU as a percentage of maximal peptide SFU: ^^ (^^: 10-20%)

## EQYQPYPEQQPFMQPL [avenin peptide]
PBMC [2]; patient P1, peptide 1 μg/ml
  IFN-γ ELISpot response (raw SFU): 0 SFU
PBMC [2]; patient P1, peptide 10 μg/ml
  IFN-γ ELISpot response (raw SFU): 0 SFU
PBMC [2]; patient P1, peptide 100 μg/ml
  IFN-γ ELISpot response (raw SFU): 4 SFU
PBMC [2]; patient P2, peptide 1 μg/ml
  IFN-γ ELISpot response (raw SFU): 0 SFU
PBMC [2]; patient P2, peptide 10 μg/ml
  IFN-γ ELISpot response (raw SFU): 3 SFU
PBMC [2]; patient P2, peptide 100 μg/ml
  IFN-γ ELISpot response (raw SFU): 49 SFU
  significant SFU as a percentage of maximal peptide SFU: *** (***: >70%)
PBMC [2]; patient P3, peptide 1 μg/ml
  IFN-γ ELISpot response (raw SFU): 3 SFU
PBMC [2]; patient P3, peptide 10 μg/ml
  IFN-γ ELISpot response (raw SFU): 18 SFU
  significant SFU as a percentage of maximal peptide SFU: * (*: 20-40%)
PBMC [2]; patient P3, peptide 100 μg/ml
  IFN-γ ELISpot response (raw SFU): 5 SFU
PBMC [2]; patient P11, peptide 1 μg/ml
  IFN-γ ELISpot response (raw SFU): 3 SFU
PBMC [2]; patient P11, peptide 10 μg/ml
  IFN-γ ELISpot response (raw SFU): 0 SFU
PBMC [2]; patient P11, peptide 100 μg/ml
  IFN-γ ELISpot response (raw SFU): 54 SFU
  significant SFU as a percentage of maximal peptide SFU: *** (***: >70%)
PBMC [2]; patient P12, peptide 1 μg/ml
  IFN-γ ELISpot response (raw SFU): 0 SFU
PBMC [2]; patient P12, peptide 10 μg/ml
  IFN-γ ELISpot response (raw SFU): 2 SFU
PBMC [2]; patient P12, peptide 100 μg/ml
  IFN-γ ELISpot response (raw SFU): 31 SFU
  significant SFU as a percentage of maximal peptide SFU: ** (**: 40-70%)
PBMC [2]; patient P13, peptide 50 μg/ml
  IFN-γ ELISpot response (raw SFU): 0 SFU
PBMC [1]; Patient 1, peptide 50 μg/ml
  IFN-γ ELISpot response (raw SFU): 19 SFU
  significant SFU as a percentage of maximal peptide SFU: (^: 5-10%)
PBMC [1]; Patient 2, peptide 50 μg/ml
  IFN-γ ELISpot response (raw SFU): 25 SFU
  significant SFU as a percentage of maximal peptide SFU: ^^ (^^: 10-20%)
PBMC [1]; Patient 3, peptide 50 μg/ml
  IFN-γ ELISpot response (raw SFU): 33 SFU
  significant SFU as a percentage of maximal peptide SFU: * (*: 20-40%)

## EQYQPYPEEQPFMQPL [partially deamidated avenin peptide]
PBMC [2]; patient P1, peptide 1 μg/ml
  IFN-γ ELISpot response (raw SFU): 1 SFU
PBMC [2]; patient P1, peptide 10 μg/ml
  IFN-γ ELISpot response (raw SFU): 1 SFU
PBMC [2]; patient P1, peptide 100 μg/ml
  IFN-γ ELISpot response (raw SFU): 2 SFU
PBMC [2]; patient P2, peptide 1 μg/ml
  IFN-γ ELISpot response (raw SFU): 2 SFU
PBMC [2]; patient P2, peptide 10 μg/ml
  IFN-γ ELISpot response (raw SFU): 0 SFU
PBMC [2]; patient P2, peptide 100 μg/ml
  IFN-γ ELISpot response (raw SFU): 27 SFU
  significant SFU as a percentage of maximal peptide SFU: ** (**: 40-70%)
PBMC [2]; patient P3, peptide 1 μg/ml
  IFN-γ ELISpot response (raw SFU): 0 SFU
PBMC [2]; patient P3, peptide 10 μg/ml
  IFN-γ ELISpot response (raw SFU): 2 SFU
PBMC [2]; patient P3, peptide 100 μg/ml
  IFN-γ ELISpot response (raw SFU): 2 SFU
PBMC [2]; patient P11, peptide 1 μg/ml
  IFN-γ ELISpot response (raw SFU): 0 SFU
PBMC [2]; patient P11, peptide 10 μg/ml
  IFN-γ ELISpot response (raw SFU): 0 SFU
PBMC [2]; patient P11, peptide 100 μg/ml
  IFN-γ ELISpot response (raw SFU): 1 SFU
PBMC [2]; patient P12, peptide 1 μg/ml
  IFN-γ ELISpot response (raw SFU): 0 SFU
PBMC [2]; patient P12, peptide 10 μg/ml
  IFN-γ ELISpot response (raw SFU): 0 SFU
PBMC [2]; patient P12, peptide 100 μg/ml
  IFN-γ ELISpot response (raw SFU): 0 SFU
PBMC [2]; patient P13, peptide 50 μg/ml
  IFN-γ ELISpot response (raw SFU): 0 SFU

## QYQPYPEQEQPILQQ [partially deamidated avenin peptide]
PBMC [2]; oats responders after 3-day oats challenge
  patients in which the peptide was the most immunogenic: 5 patients

## AQFDPSEQYQPYPEQQQPIL [avenin library peptide]
PBMC [1]; Patient 1, peptide 50 μg/ml
  IFN-γ ELISpot response (raw SFU): 35 SFU
  significant SFU as a percentage of maximal peptide SFU: ^^ (^^: 10-20%)
PBMC [1]; Patient 2, peptide 50 μg/ml
  IFN-γ ELISpot response (raw SFU): 159 SFU
  significant SFU as a percentage of maximal peptide SFU: *** (***: >70%)
PBMC [1]; Patient 3, peptide 50 μg/ml
  IFN-γ ELISpot response (raw SFU): 24 SFU
  significant SFU as a percentage of maximal peptide SFU: ^^ (^^: 10-20%)

## EQYQPYPEQEQPFVQQQPPF [avenin library peptide]
PBMC [1]; Patient 1, peptide 50 μg/ml
  IFN-γ ELISpot response (raw SFU): 99 SFU
  significant SFU as a percentage of maximal peptide SFU: * (*: 20-40%)
PBMC [1]; Patient 2, peptide 50 μg/ml
  IFN-γ ELISpot response (raw SFU): 192 SFU
  significant SFU as a percentage of maximal peptide SFU: *** (***: >70%)
PBMC [1]; Patient 3, peptide 50 μg/ml
  IFN-γ ELISpot response (raw SFU): 14 SFU
  significant SFU as a percentage of maximal peptide SFU: (^: 5-10%)
Patient 2 TCC-01
  IFN-γ ELISpot response (raw SFU): 283 SFU
Patient 6 TCC-01
  IFN-γ ELISpot response (raw SFU): 30 SFU
